Here are results for one molecule from US20220105041A1, “METHOD FOR MANUFACTURING A SOLID ADMINISTRATION FORM AND SOLID ADMINISTRATION” (priority 2019, published 2022).

A short description of the data set: Dissolution (release of caffeine) of 3D printed tablets, paddle method, Sotax AT 7smart. The class given is physicochemical. The note with it: 900 ml 0.1 n HCl, 37° C., paddle 100 rpm, UV 272 nm. On the procedure:
Release of caffeine as active ingredient is determined using the Sotax Freisetzungsapparatur Sotax AT 7smart (Sotax AG, Lörrach, Germany) […]
Each sample is collected in a test tube with the automatic sampler.
Device: Release apparatus: Sotax AT 7smart (Sotax AG, Lörrach, Germany), Photometer Agilent 8453 (Agilent Technologies, Waldbronn, Germany)
Temperature of medium: 37° C.
Cuvette layer thickness: 10 mm
FIG. 31 illustrates results achieved by dissolution measurement of 3D printed caffeine containing tablets in 900 ml of 0.1 n HCl. […] To dissolute and release the full API amount of a filled tablet (100%) needs 360 minutes for entire release of the comprising API, while a 3D printed tablet, 50% filled, already releases 100% of the comprising API amount after app 30 minutes in the dissolution equipment. The time measured is […] dissolving pure crystalline caffeine particles tested in comparison by 100% after app 5 minutes.

As to `Cn1c(=O)c2c(ncn2C)n(C)c1=O` [pure crystalline caffeine, Caffeine], the “time to release 100% (full amount) of API caffeine” value was roughly 5 min.
